Holding throughout (assay type): functional, cell-based
Series [1] has as its target T1, Solute carrier family 22 member 2 (Homo sapiens, UniProt O15244).
T1 sequence (O15244 whole entry): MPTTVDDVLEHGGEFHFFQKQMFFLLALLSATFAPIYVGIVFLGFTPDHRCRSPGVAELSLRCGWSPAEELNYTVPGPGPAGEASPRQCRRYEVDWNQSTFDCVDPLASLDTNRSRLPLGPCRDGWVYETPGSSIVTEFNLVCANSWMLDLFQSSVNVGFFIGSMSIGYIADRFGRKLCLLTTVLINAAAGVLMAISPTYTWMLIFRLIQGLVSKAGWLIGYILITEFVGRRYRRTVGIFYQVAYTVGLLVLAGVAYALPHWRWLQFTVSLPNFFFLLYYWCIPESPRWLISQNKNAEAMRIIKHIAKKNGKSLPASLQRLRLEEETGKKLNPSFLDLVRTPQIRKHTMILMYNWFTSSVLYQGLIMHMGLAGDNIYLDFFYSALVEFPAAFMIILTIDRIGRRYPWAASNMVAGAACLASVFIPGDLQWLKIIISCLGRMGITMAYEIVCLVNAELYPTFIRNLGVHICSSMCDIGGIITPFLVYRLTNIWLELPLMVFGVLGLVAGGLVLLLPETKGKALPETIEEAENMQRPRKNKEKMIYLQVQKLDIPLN
In words: TP_TRANSPORTER: inhibition of TEA uptake (TEA: 5 uM, MPP+: 1000 uM) in OCT2A-expressing HEK293 cells. The settings on record: hek293, 1000 µM.

Series [2] concerns the target T1, Solute carrier family 22 member 2. The experiment in a line: TP_TRANSPORTER: uptake in OCT2A-expressing HEK293 cells.
The target is the same in series [3]. The experiment in a line: TP_TRANSPORTER: inhibition of TEA uptake (TEA: 5 uM, N-acetyl procainamide: 1000 uM) in OCT2A-expressing HEK293 cells. The settings on record: hek293, 1000 µM.
The target is the same in series [4]. In words: TP_TRANSPORTER: inhibition of TEA uptake (TEA: 5 uM, N-acetyl procainamide: 1000 uM) in OCT2-expressing HEK293 cells. The following applies: hek293, 1000 µM.
For series [5] the target is unchanged. The experiment in a line: TP_TRANSPORTER: inhibition of TEA uptake (TEA: 5 uM, Amantadine: 100 uM) in OCT2A-expressing HEK293 cells. The settings on record: hek293, 100 µM.
Series [6] has the same target. The experiment in a line: TP_TRANSPORTER: inhibition of TEA uptake (TEA: 5 uM, Creatinine: 1000 uM) in OCT2A-expressing HEK293 cells. The following applies: hek293, 1000 µM.
Series [7] has the same target. In words: TP_TRANSPORTER: inhibition of TEA uptake (TEA: 5 uM, Creatinine: 1000 uM) in OCT2-expressing HEK293 cells. The settings on record: hek293, 1000 µM.
The target is the same in series [8]. The experiment in a line: TP_TRANSPORTER: inhibition of TEA uptake (TEA: 5 uM, GPFX: 2500 uM) in OCT2-expressing HEK293 cells. The following applies: hek293, 2500 µM.
For series [9] the target is unchanged. In words: TP_TRANSPORTER: inhibition of TEA uptake (TEA: 5 uM, GPFX: 2500 uM) in OCT2A-expressing HEK293 cells. The settings on record: hek293, 2500 µM.
Series [10] has the same target. The experiment in a line: TP_TRANSPORTER: inhibition of TEA uptake (TEA: 5 uM, Guanidine: 1000 uM) in OCT2-expressing HEK293 cells. The following applies: hek293, 1000 µM.
Series [11] shares this target. The experiment in a line: TP_TRANSPORTER: inhibition of TEA uptake (TEA: 5 uM, Guanidine: 1000 uM) in OCT2A-expressing HEK293 cells. The following applies: hek293, 1000 µM.
The target is the same in series [12]. In words: TP_TRANSPORTER: uptake in OCT2-expressing HEK293 cells.
Series [13] shares this target. In words: TP_TRANSPORTER: inhibition of TEA uptake (TEA: 5 uM, Imipramine: 1000 uM) in OCT2-expressing HEK293 cells. The settings on record: hek293, 1000 µM.
For series [14] the target is unchanged. In words: TP_TRANSPORTER: inhibition of TEA uptake (TEA: 5 uM, Imipramine: 1000 uM) in OCT2A-expressing HEK293 cells. The settings on record: hek293, 1000 µM.
Series [15] has the same target. In words: TP_TRANSPORTER: inhibition of TEA uptake (TEA: 5 uM, Levofloxacin: 2500 uM) in OCT2-expressing HEK293 cells. The settings on record: hek293, 2500 µM.
Series [16] shares this target. In words: TP_TRANSPORTER: inhibition of TEA uptake (TEA: 5 uM, Levofloxacin: 2500 uM) in OCT2A-expressing HEK293 cells. The following applies: hek293, 2500 µM.
Series [17] has the same target. In words: TP_TRANSPORTER: inhibition of TEA uptake (TEA: 5 uM, NMN: 1000 uM) in OCT2A-expressing HEK293 cells. The following applies: hek293, 1000 µM.
Series [18] shares this target. The experiment in a line: TP_TRANSPORTER: inhibition of TEA uptake (TEA: 5 uM, Noradrenaline: 1000 uM) in OCT2-expressing HEK293 cells. The following applies: hek293, 1000 µM.
The target is the same in series [19]. In words: TP_TRANSPORTER: inhibition of TEA uptake (TEA: 5 uM, Noradrenaline: 1000 uM) in OCT2A-expressing HEK293 cells. The settings on record: hek293, 1000 µM.
For series [20] the target is unchanged. The experiment in a line: TP_TRANSPORTER: inhibition of TEA uptake (TEA: 5 uM, Procainamide: 1000 uM) in OCT2A-expressing HEK293 cells. The following applies: hek293, 1000 µM.
The target is the same in series [21]. The experiment in a line: TP_TRANSPORTER: inhibition of TEA uptake (TEA: 5 uM, Procainamide: 1000 uM) in OCT2-expressing HEK293 cells. The following applies: hek293, 1000 µM.
For series [22] the target is unchanged. The experiment in a line: TP_TRANSPORTER: inhibition of TEA uptake (TEA: 5 uM, Serotonin: 1000 uM) in OCT2-expressing HEK293 cells. The settings on record: hek293, 1000 µM.
For series [23] the target is unchanged. The experiment in a line: TP_TRANSPORTER: inhibition of TEA uptake (TEA: 5 uM, Serotonin: 1000 uM) in OCT2A-expressing HEK293 cells. The following applies: hek293, 1000 µM.

Turning to `C[n+]1ccc(-c2ccccc2)cc1`, the Activity result was “inhibitor [(at a rough estimate) 5 % of control]” in series [1] and “substrate [+]” in [2].

On to `CCN(CC)CCNC(=O)c1ccc(NC(C)=O)cc1` [ACECAINIDE], for which the Activity entry in series [3] is “inhibitor [(at a rough estimate) 15 % of control]”; in [4], “is not an inhibitor [-]”.

For `NC12CC3CC(CC(C3)C1)C2` [AMANTADINE], the Activity entry in series [5] is “inhibitor [(at a rough estimate) 5 % of control]”.

With `CN/C(=N/CCSCc1nc[nH]c1C)NC#N` [CIMETIDINE], in series [2], the Activity result is “is not a substrate [-]”.

As to `CN1CC(=O)NC1=N` [CREATININE], the Activity entry was “inhibitor [(at a rough estimate) 95 % of control]” in [6] and “inhibitor [(at a rough estimate) 80 % of control]” in series [7].

As to `Cc1c(F)c(N2CCNC(C)C2)cc2c1c(=O)c(C(=O)O)cn2C1CC1` (centres undefined) [GREPAFLOXACIN], the Activity entry in [8] is “inhibitor [(at a rough estimate) 30 % of control]”; in [9], “inhibitor [(at a rough estimate) 5 % of control]”.

As to `N=C(N)N` [GUANIDINE], the Activity result is “is not a substrate [-]” in [2], “inhibitor [(at a rough estimate) 60 % of control]” in series [10], “inhibitor [(at a rough estimate) 80 % of control]” in series [11] and “substrate [+]” in series [12].

As to `CN(C)CCCN1c2ccccc2CCc2ccccc21` [IMIPRAMINE], the Activity result in [13] is “inhibitor [(at a rough estimate) 10 % of control]”; in series [14], “inhibitor [(at a rough estimate) 5 % of control]”.

As to `C[C@H]1COc2c(N3CCN(C)CC3)c(F)cc3c(=O)c(C(=O)O)cn1c23.C[C@H]1COc2c(N3CCN(C)CC3)c(F)cc3c(=O)c(C(=O)O)cn1c23.O` [LEVOFLOXACIN], the Activity result in series [2] is “is not a substrate [-]”; in [15] it was “is not an inhibitor [-]”; in [16], “inhibitor [(at a rough estimate) 25 % of control]”; in series [12], “is not a substrate [-]”.

For the compound `CNC(=O)c1cccnc1` [NICOTINYL METHYLAMIDE], the Activity entry in [17] is “inhibitor [(at a rough estimate) 30 % of control]”.

For `NC[C@H](O)c1ccc(O)c(O)c1` [NOREPINEPHRINE], the Activity entry in series [18] was “inhibitor [(at a rough estimate) 65 % of control]”; in [19], “is not an inhibitor [-]”.

On to `CCN(CC)CCNC(=O)c1ccc(N)cc1` [PROCAINAMIDE], for which the Activity entry in series [20] is “inhibitor [(at a rough estimate) 15 % of control]”; in [21], “is not an inhibitor [-]”.

In the case of `NCCc1c[nH]c2ccc(O)cc12` [SEROTONIN], the Activity entry in series [22] was “inhibitor [(at a rough estimate) 55 % of control]”; in [23], “inhibitor [(at a rough estimate) 35 % of control]”.

In the case of `Cc1cn([C@H]2C[C@H](N=[N+]=[N-])[C@@H](CO)O2)c(=O)[nH]c1=O` [ZIDOVUDINE], the Activity result in series [2] and in series [12] was “is not a substrate [-]” in each case.
